Results taken from patent US9963461B2, “Phillygenin ibuprofen ester, preparation method therefor, and application thereof” (priority 2014, dated 2018).
Marks after values point to notes of the source that are not given here.

Assays:
parainfluenza virus [1] = assay type: in vivo, Kunming mice; conditions: lung suspensions, parainfluenza virus infected mice; 19.5 mg/kg/d, 5 days
[2] = test system: Herpes Simplex Virus type I (HSV-1); assay: Impact of the drugs on the virus-induced cytopathy (MTT); assay type: cell-based; conditions: HSV-I 100 TCID50, Vero cells, about the maximal non-cytotoxic concentration, 72 hours
Adenovirus (AdV) = assay: as above; assay type: cell-based; conditions: ADV 100 TCID50, Vero cells, about the maximal non-cytotoxic concentration, 72 hours
[3] = test system: respiratory syncytial virus (RSV); assay: as above; assay type: cell-based; conditions: RSV 100 TCID50, Vero cells, about the maximal non-cytotoxic concentration, 72 hours
Vero cell = assay: Cytotoxicity test on Vero cell (MTT); conditions: 72 hours
influenza virus [4] = assay: Impact of the drugs on the virus-induced cytopathy (MTT); assay type: cell-based; conditions: influenza virus 100 TCID50, Vero cells, about the maximal non-cytotoxic concentration, 72 hours
Enterovirus EV71 = assay: as above; assay type: cell-based; conditions: EV71 100 TCID50, Vero cells, about the maximal non-cytotoxic concentration, 72 hours
[5] = test system: Coxsackie virus A16 (CoxA16); assay: as above; assay type: cell-based; conditions: CoxA16 100 TCID50, Vero cells, about the maximal non-cytotoxic concentration, 72 hours
parainfluenza virus [6] = assay type: in vivo, Kunming mice; conditions: parainfluenza virus infected mice; 19.5 mg/kg/d intragastric, 5 days
influenza virus [7] = assay type: in vivo, Kunming mice; conditions: influenza virus infected mice; 19.5 mg/kg/d intragastric, 5 days
[8] = test system: coxsackie virus B3 (CVB3); assay: Impact of the drugs on the virus-induced cytopathy (MTT); assay type: cell-based; conditions: CVB3 100 TCID50, Vero cells, about the maximal non-cytotoxic concentration, 72 hours
influenza virus [9] = assay type: in vivo, Kunming mice; conditions: lung suspensions, influenza virus infected mice; 19.5 mg/kg/d, 5 days
parainfluenza virus [10] = assay: Impact of the drugs on the virus-induced cytopathy (MTT); assay type: cell-based; conditions: parainfluenza virus 100 TCID50, Vero cells, about the maximal non-cytotoxic concentration, 72 hours

SMILES: CCOC(=O)C1=C[C@@H](OC(CC)CC)[C@H](NC(C)=O)[C@@H](N)C1 [Oseltamivir phosphate, oseltamivir phosphate]
- Hemagglutination titer (InX) (parainfluenza virus [1]): 22.05 ± 1.055
- Hemagglutination titer Inhibitive rate (%) (parainfluenza virus [1]): 33.44%
- antiviral effective rate (ER %) [2]: 66.56** %
- antiviral effective rate (ER %) (Adenovirus (AdV)): 10.31%
- antiviral effective rate (ER %) [3]: 37.60%
- Median toxic concentration (TC50) (Vero cell): 832 µg/mL
- maximal non-toxic concentration (TC0) (Vero cell): 0.28 g/L
- antiviral effective rate (ER %) (influenza virus [4]): 81.76** %
- antiviral effective rate (ER %) (Enterovirus EV71): 51.86%
- antiviral effective rate (ER %) [5]: 2.95%
- Lung index (X ± S) (parainfluenza virus [6]): 1.243 ± 0.052
- Lung index Inhibitive rate (%) (parainfluenza virus [6]): 21.85%
- Lung index (X ± S) (influenza virus [7]): 1.178 ± 0.066
- Lung index Inhibitive rate (%) (influenza virus [7]): 19.84%
- antiviral effective rate (ER %) [8]: 1.64%
- Hemagglutination titer (InX) (influenza virus [9]): 20.50 ± 1.122
- Hemagglutination titer Inhibitive rate (%) (influenza virus [9]): 36.73%
- antiviral effective rate (ER %) (parainfluenza virus [10]): 94.52** %
